Reference: patent publication US20250195513A1, “DEGRADATION OF IRAK4 BY CONJUGATION OF IRAK4 INHIBITORS WITH E3 LIGASE LIGAND AND METHODS OF USE” (BeiGene, Ltd., priority 2022, published 2025)
Where two headings read alike, the source gives them in different places.

Biological target: T1, IRAK4 (Homo sapiens, UniProt Q9NWZ3)
T1 construct: endogenous in cells; host or cells: Karpas299
T1 sequence (Q9NWZ3 1-460): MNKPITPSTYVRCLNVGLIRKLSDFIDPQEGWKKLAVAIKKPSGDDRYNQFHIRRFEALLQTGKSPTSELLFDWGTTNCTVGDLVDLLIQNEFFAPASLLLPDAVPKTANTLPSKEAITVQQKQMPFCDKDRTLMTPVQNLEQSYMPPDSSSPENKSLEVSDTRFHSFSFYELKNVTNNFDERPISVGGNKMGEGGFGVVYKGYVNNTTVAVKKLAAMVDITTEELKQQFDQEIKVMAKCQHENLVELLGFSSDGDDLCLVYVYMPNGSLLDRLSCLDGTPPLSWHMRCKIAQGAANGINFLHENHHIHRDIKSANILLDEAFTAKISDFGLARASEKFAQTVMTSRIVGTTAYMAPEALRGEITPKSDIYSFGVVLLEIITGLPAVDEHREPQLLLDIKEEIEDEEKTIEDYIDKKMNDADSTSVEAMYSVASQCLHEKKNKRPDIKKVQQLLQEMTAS
Experiment: IRAK4 Degradation Assay (Karpas299, HTRF/TR-FRET)
Type: cell-based
Description: IRAK4 degradation was measured using a TR-FRET-based method (Degorce, François, et al. Current chemical genomics. 2009, 3: 22). Karpas299 maintained in RPMI 1640 medium (Thermo Scientific) supplemented with 20% fetal bovine serum (FBS, Thermo Scientific), 100 units/mL penicillin and 0.1 mg/mL streptomycin (Thermo Scientific) were seeded into 96-well plates at the density of 0.2 million cells per well and then treated with a series dilution of compounds. After 24 hours or 5 hours treatment, cells were pelleted via centrifugation and 40 μL lysis buffer (Cisbio) was added to each well after removal of the supernatant. Plates were then incubated at room temperature with shaking for 30 minutes. A total of 16 μL of cell lysates from each well of a 96-well plate was transferred to a 384-well white assay plate. IRAK4 level was quantitated using the HTRF kit as described by the manufacturer manual (Cisbio). FRET signals were measured using a PHERAstar FSX reader (BMG Labtech).
After treatment, add HTRF lysis buffer to each well; seal the plate and incubate 1 hour at room temperature on a plate shaker; Once the cells are lysed, 16 μL of cell lysate are transferred to a PE 384-well HTRF detection plate; 4 μL of pre-mixed HTRF antibodies are added to each well; Cover the plate with a plate sealer, spin 1000 rpm for 1 min, Incubate overnight at room temperature; Read on BMG PheraStar with HTRF protocol (337 nm-665 nm-620 nm).
The inhibition (degradation) percentage of the compound was calculated by the following equation: […]
The IC50 (DC50) value of a compound can be obtained by fitting the following equation
Wherein, X and Y are known values, and IC50, Hillslope, Top and Bottom are the parameters obtained by fitting with software. Y is the inhibition percentage (calculated from the equation), X is the concentration of the compound; IC50 is the concentration of the compound when the […] is reached. The smaller the IC50 value is, the stronger the inhibitory ability of the compound is. Vice versa, the higher the IC50 value is, the weaker the ability the inhibitory ability of the compound is; Hillslope represents the slope of the fitted curve, generally around 1 *; Bottom represents the minimum value of the curve obtained by data fitting, which is generally 0%±20%; Top represents the maximum value of the curve obtained by data fitting, which is generally 100%±20%. The experimental data were fitted by calculating and analyzing with Dotmatics data analysis software.

[1] = Degradation (Karpas-299), comparison table, Linker Type A, read-out: Compound (Linker Type A) DC50
[2] = Degradation (Karpas-299), comparison table, Linker Type A, read-out: Compound (Linker Type A) Dmax (%)
[3] = Karpas-299 cells, 24 h treatment, maximum percentage of degradation, read-out: IRAK4 in Karpas-299 (24 h) Dmax (%)
[4] = Karpas-299 cells, 24 h treatment, read-out: IRAK4 in Karpas-299 (24 h) DC50
[5] = Karpas-299 cells, 5 h treatment, maximum percentage of degradation, read-out: IRAK4 in Karpas-299 (5 h) Dmax (%)
[6] = Karpas-299 cells, 5 h treatment, read-out: IRAK4 in Karpas-299 (5 h) DC50

| Structure (SMILES) | DC50 [1] [nM] | Dmax [2] [%] | Dmax [3] [%] | DC50 [4] [nM] | Dmax [5] [%] | DC50 [6] [nM] |
| --- | --- | --- | --- | --- | --- | --- |
| O=C1CC[C@H](c2c(F)cc(CCN3CCN(C[C@H]4CC[C@H](n5cc(NC(=O)c6coc(-c7ccnc(NCC(F)(F)F)c7)n6)c(C(F)F)n5)CC4)CC3)cc2F)C(=O)N1 [Example 1, N-(3-(difluoromethyl)-1-((1R,4r)-4-((4-(4-((R)-2,6-dioxopiperidin-3-yl)-3,5-difluorophenethyl)piperazin-1-yl)methyl)cyclohexyl)-1H-pyrazol-4-yl)-2-(2-((2,2,2-trifluoroethyl)amino)pyridin-4-yl)oxazole-4-carboxamide] | > 10000 | 46 | 46 | > 10000 | – | – |
| O=C1CCN(c2ccc(N3CCC(N4CCN(C[C@H]5CC[C@H](n6cc(NC(=O)c7coc(-c8ccnc(NCC(F)(F)F)c8)n7)c(C(F)F)n6)CC5)CC4)CC3)cc2)C(=O)N1 [Example 2, N-(3-(difluoromethyl)-1-((1r,4r)-4-((4-(1-(4-(2,4-dioxotetrahydropyrimidin-1(2H)-yl)phenyl)piperidin-4-yl)piperazin-1-yl)methyl)cyclohexyl)-1H-pyrazol-4-yl)-2-(2-((2,2,2-trifluoroethyl)amino)pyridin-4-yl)oxazole-4-carboxamide] | > 10000 | 6.5 | 6.5 | > 10000 | – | – |
| O=C1CCN(c2ccc(N3CC(N4CCN(C[C@H]5CC[C@H](n6cc(NC(=O)c7coc(-c8ccnc(NCC(F)(F)F)c8)n7)c(C(F)F)n6)CC5)CC4)C3)cc2)C(=O)N1 [Example 3, N-(3-(difluoromethyl)-1-((1r,4r)-4-((4-(1-(4-(2,4-dioxotetrahydropyrimidin-1(2H)-yl)phenyl)azetidin-3-yl)piperazin-1-yl)methyl)cyclohexyl)-1H-pyrazol-4-yl)-2-(2-((2,2,2-trifluoroethyl)amino)pyridin-4-yl)oxazole-4-carboxamide] | > 10000 | 9 | 9 | > 10000 | – | – |
| COc1cc2nn([C@H]3CC[C@H](CN4CCN(C(=O)C5CN(c6ccc(N7CCC(=O)NC7=O)cc6)C5)CC4)CC3)cc2cc1NC(=O)c1cccc(C(F)(F)F)n1 [Example 5, N-(2-((1r,4r)-4-((4-(1-(4-(2,4-dioxotetrahydropyrimidin-1(2H)-yl)phenyl)azetidine-3-carbonyl)piperazin-1-yl)methyl)cyclohexyl)-6-methoxy-2H-indazol-5-yl)-6-(trifluoromethyl)picolinamide] | 14 | 92 | 92 | 14 | – | – |
| COc1cc2nn([C@H]3CC[C@H](CN4CCN(C(=O)[C@H]5CC[C@H](Oc6ccc(N7CCC(=O)NC7=O)cc6)CC5)CC4)CC3)cc2cc1NC(=O)c1cccc(C(F)(F)F)n1 [Example 6, N-(2-((1R,4r)-4-((4-((1r,4R)-4-(4-(2,4-dioxotetrahydropyrimidin-1(2H)-yl)phenoxy)cyclohexane-1-carbonyl)piperazin-1-yl)methyl)cyclohexyl)-6-methoxy-2H-indazol-5-yl)-6-(trifluoromethyl)picolinamide] | > 10000 | 11 | 11 | > 10000 | – | – |
| COc1cc2nn([C@H]3CC[C@H](CN4CCN(C(=O)C5CCN(c6ccc(N7CCC(=O)NC7=O)cc6)CC5)CC4)CC3)cc2cc1NC(=O)c1cccc(C(F)(F)F)n1 [Example 7, N-(2-((1r,4r)-4-((4-(1-(4-(2,4-dioxotetrahydropyrimidin-1(2H)-yl)phenyl)piperidine-4-carbonyl)piperazin-1-yl)methyl)cyclohexyl)-6-methoxy-2H-indazol-5-yl)-6-(trifluoromethyl)picolinamide] | 137 | 66 | 66 | 137 | – | – |

These reach a lower DC50 [4]. Values come first.

| DC50 [1] [nM] | Dmax [2] [%] | Dmax [3] [%] | DC50 [4] [nM] | Dmax [5] [%] | DC50 [6] [nM] | Structure (SMILES) |
| --- | --- | --- | --- | --- | --- | --- |
| 6.2 | 95 | 95 | 6.2 | – | – | O=C1CC[C@H](c2c(F)cc(N3CC(C(=O)N4CCN(C[C@H]5CC[C@H](n6cc(NC(=O)c7coc(-c8ccnc(NCC(F)(F)F)c8)n7)c(C(F)F)n6)CC5)CC4)C3)cc2F)C(=O)N1 [Example 4, N-(3-(difluoromethyl)-1-((1r,4r)-4-((4-(1-(4-((R)-2,6-dioxopiperidin-3-yl)-3,5-difluorophenyl)azetidine-3-carbonyl)piperazin-1-yl)methyl)cyclohexyl)-1H-pyrazol-4-yl)-2-(2-((2,2,2-trifluoroethyl)amino)pyridin-4-yl)oxazole-4-carboxamide] |
| – | – | 92 | 5.4 | – | – | NC(=O)c1nn([C@H]2CC[C@H](N3CCN(C4CC(c5ccc(N[C@H]6CCC(=O)NC6=O)cc5)C4)CC3)CC2)cc1NC(=O)c1coc(-c2ccnc(NCC(F)(F)F)c2)n1 (stereo partly drawn) [Example 10, N-(3-carbamoyl-1-((1r,4r)-4-(4-(3-(4-(((S)-2,6-dioxopiperidin-3-yl)amino)phenyl)cyclobutyl)piperazin-1-yl)cyclohexyl)-1H-pyrazol-4-yl)-2-(2-((2,2,2-trifluoroethyl)amino)pyridin-4-yl)oxazole-4-carboxamide] |
| – | – | 94 | 2.7 | 84 | 7.5 | O=C1CCN(c2ccc(N3CC(C(=O)N4CCN([C@H]5CC[C@H](n6cc(NC(=O)c7coc(-c8ccnc(NCC(F)(F)F)c8)n7)c(C(F)F)n6)CC5)CC4)C3)cc2)C(=O)N1 [Example 13, N-(3-(difluoromethyl)-1-((1r,4r)-4-(4-(1-(4-(2,4-dioxotetrahydropyrimidin-1(2H)-yl)phenyl)azetidine-3-carbonyl)piperazin-1-yl)cyclohexyl)-1H-pyrazol-4-yl)-2-(2-((2,2,2-trifluoroethyl)amino)pyridin-4-yl)oxazole-4-carboxamide] |
| – | – | 95 | 2.5 | – | – | NC(=O)c1nn([C@H]2CC[C@H](N3CCN(C4CC(c5ccc(N[C@@H]6CCC(=O)NC6=O)cc5)C4)CC3)CC2)cc1NC(=O)c1coc(-c2ccnc(NCC(F)(F)F)c2)n1 (stereo partly drawn) [Example 9, N-(3-carbamoyl-1-((1r,4r)-4-(4-(3-(4-(((R)-2,6-dioxopiperidin-3-yl)amino)phenyl)cyclobutyl)piperazin-1-yl)cyclohexyl)-1H-pyrazol-4-yl)-2-(2-((2,2,2-trifluoroethyl)amino)pyridin-4-yl)oxazole-4-carboxamide] |
| – | – | 97 | 2.1 | – | – | NC(=O)c1nn([C@H]2CC[C@H](N3CCN(C(=O)C4CN(c5ccc(N6CCC(=O)NC6=O)cc5)C4)CC3)CC2)cc1NC(=O)c1coc(-c2ccnc(NCC(F)(F)F)c2)n1 [Example 8, N-(3-carbamoyl-1-((1r,4r)-4-(4-(1-(4-(2,4-dioxotetrahydropyrimidin-1(2H)-yl)phenyl)azetidine-3-carbonyl)piperazin-1-yl)cyclohexyl)-1H-pyrazol-4-yl)-2-(2-((2,2,2-trifluoroethyl)amino)pyridin-4-yl)oxazole-4-carboxamide] |
| – | – | 97 | 1.6 | 94 | 2.4 | NC(=O)c1nn([C@H]2CC[C@H](N3CCN(C(=O)C4CN(c5cc(F)c([C@H]6CCC(=O)NC6=O)c(F)c5)C4)CC3)CC2)cc1NC(=O)c1coc(-c2ccnc(NCC(F)(F)F)c2)n1 [Example 11, N-(3-carbamoyl-1-((1r,4r)-4-(4-(1-(4-((R)-2,6-dioxopiperidin-3-yl)-3,5-difluorophenyl)azetidine-3-carbonyl)piperazin-1-yl)cyclohexyl)-1H-pyrazol-4-yl)-2-(2-((2,2,2-trifluoroethyl)amino)pyridin-4-yl)oxazole-4-carboxamide] |
